Results taken from US6355799B1, “Substituted benzene compounds, process for their preparation, and herbicidal and defoliant compositions containing them” (ISK Americas Incorporated, priority 1997, dated 2002).

Key:
Type in all cases: in vivo
[1] = test system: redroot pigweed (Amaranthus retroflexus, AMARE); experiment: Pre-emerge test, greenhouse herbicide activity screening; details: pre-emerge, 14 days after application, rating scale 0-100
In short: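 Compounds in acetone were track-sprayed at 15-1000 g ai/ha (187 l/ha) on sandy loam pots: pre-emerge one day after seeding, post-emerge at 2-3 leaf stage with 0.25% v/v non-ionic surfactant. Phytotoxicity was rated 14 days later on a 0 (no damage) to 100 (complete death) scale.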

[2] = test system: barnyardgrass (Echinochloa crus-galli, ECHCG); experiment: as above; details: pre-emerge, 14 days after application, rating scale 0-100
In short: (§1)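 Applied at 15–1000 g ai/ha from acetone in 187 l/ha spray volume. Post-emergence applications included 0.25% v/v non-ionic surfactant and reached plants sown 8–21 days before. Pre-emergence applications were incorporated by surface watering. Efficacy or crop damage was rated on a 0–100 scale after 14 days.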

[3] = test system: green foxtail (Setaria viridis, SETVI); experiment: as above; details: pre-emerge, 14 days after application, rating scale 0-100
In short: as §1

[4] = test system: ivyleaf morningglory (Ipomoea hederacea, IPOHE); experiment: as above; details: pre-emerge, 14 days after application, rating scale 0-100
In short: as §1

[5] = test system: johnsongrass (Sorghum halepense, SORHA); experiment: as above; details: pre-emerge, 14 days after application, rating scale 0-100
In short: as §1

[6] = test system: lambsquarters (Chenopodium album, CHEAL); experiment: as above; details: pre-emerge, 14 days after application, rating scale 0-100
In short: as §1

[7] = test system: large crabgrass (Digitaria sanguinalis, DIGSA); experiment: as above; details: pre-emerge, 14 days after application, rating scale 0-100
In short: as §1

[8] = test system: sicklepod (Cassia obtusifolia, CASOB); experiment: as above; details: pre-emerge, 14 days after application, rating scale 0-100
In short: as §1

[9] = test system: velvetleaf (Abutilon theophrasti, ABUTH); experiment: as above; details: pre-emerge, 14 days after application, rating scale 0-100
In short: as §1

[10] = test system: field corn (Zea mays L., var. Dekalb 535, CORN); experiment: Pre-emerge test, crop safety; details: pre-emerge, 14 days after application, rating scale 0-100
In short: (§2)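 Visual ratings on a 0-100 scale (0 no damage, 100 all plants dead) were taken at 14 days after treatment. Rates of 15-1000 g ai/ha in acetone, 187 l/ha, were sprayed onto soil one day after planting (pre-emerge) or onto 2-3 leaf plants with 0.25% v/v surfactant (post-emerge).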

[11] = test system: upland rice (Oryza sp., var. Tebonnet, RICE); experiment: Pre-emerge test, crop safety; details: pre-emerge, 14 days after application, rating scale 0-100
In short: as §2

[12] = test system: barnyardgrass (Echinochloa crus-galli, ECHCG); experiment: Post-emerge test, greenhouse herbicide activity screening; details: rating scale 0-100 (0 no damage, 100 complete death), 14 days after application
In short: as §1

[13] = test system: common ragweed (Ambrosia artemisizfolia L., AMBEL); experiment: as above; details: rating scale 0-100 (0 no damage, 100 complete death), 14 days after application
In short: as §1

[14] = test system: green foxtail (Setaria viridis, SETVI); experiment: as above; details: rating scale 0-100 (0 no damage, 100 complete death), 14 days after application
In short: as §1

[15] = test system: ivyleaf morningglory (Ipomoea hederacea, IPOHE); experiment: as above; details: rating scale 0-100 (0 no damage, 100 complete death), 14 days after application
In short: as §1

[16] = test system: johnsongrass (Sorghum halepense, SORHA); experiment: as above; details: rating scale 0-100 (0 no damage, 100 complete death), 14 days after application
In short: as §1

[17] = test system: lambsquarters (Chenopodium album, CHEAL); experiment: as above; details: rating scale 0-100 (0 no damage, 100 complete death), 14 days after application
In short: as §1

[18] = test system: large crabgrass (Digitaria sanguinalis, DIGSA); experiment: as above; details: rating scale 0-100 (0 no damage, 100 complete death), 14 days after application
In short: as §1

[19] = test system: redroot pigweed (Amaranthus retroflexus, AMARE); experiment: as above; details: rating scale 0-100 (0 no damage, 100 complete death), 14 days after application
In short: as §1

[20] = test system: sicklepod (Cassia obtusifolia, CASOB); experiment: as above; details: rating scale 0-100 (0 no damage, 100 complete death), 14 days after application
In short: as §1

[21] = test system: velvetleaf (Abutilon theophrasti, ABUTH); experiment: as above; details: rating scale 0-100 (0 no damage, 100 complete death), 14 days after application
In short: as §1

[22] = test system: field corn (Zea mays L., var. Dekalb 535, CORN); experiment: Post-emerge test, crop safety; details: rating scale 0-100 (0 no damage, 100 complete death), 14 days after application
In short: as §1

[23] = test system: upland rice (Oryza sp., var. Tebonnet, RICE); experiment: Post-emerge test, crop safety; details: rating scale 0-100 (0 no damage, 100 complete death), 14 days after application
In short: as §1

With `COc1c(Cl)cc(F)c(-n2c(=O)cc(C(F)(F)F)n(C)c2=O)c1CC(C)(Cl)C(=O)OCC1CCCO1` (centres unmarked) [14-49] the “phytotoxicity rating AMARE” value ([1]; 63 g ai/ha) was 100, the “phytotoxicity rating AMARE” value ([1]; 250 g ai/ha) was 100 and the “phytotoxicity rating ECHCG” value ([2]; 63 g ai/ha) was 0. For the same molecule, the “phytotoxicity rating ECHCG” value ([2]; 250 g ai/ha) was 100, the “phytotoxicity rating SETVI” value ([3]; 63 g ai/ha) was 50 and the “phytotoxicity rating SETVI” value ([3]; 250 g ai/ha) was 100. For the same molecule, the “phytotoxicity rating IPOHE” value ([4]; 63 g ai/ha) was 50, the “phytotoxicity rating IPOHE” value ([4]; 250 g ai/ha) was 90 and the “phytotoxicity rating SORHA” value ([5]; 63 g ai/ha) was 20. The “phytotoxicity rating SORHA” value ([5]; 250 g ai/ha) was 90, the “phytotoxicity rating CHEAL” value ([6]; 63 g ai/ha) was 100 and the “phytotoxicity rating CHEAL” value ([6]; 250 g ai/ha) was 100. For the same molecule, the “phytotoxicity rating DIGSA” value ([7]; 63 g ai/ha) was 50, the “phytotoxicity rating DIGSA” value ([7]; 250 g ai/ha) was 100 and the “phytotoxicity rating CASOB” value ([8]; 63 g ai/ha) was 0. The “phytotoxicity rating CASOB” value ([8]; 250 g ai/ha) was 70, the “phytotoxicity rating ABUTH” value ([9]; 63 g ai/ha) was 100 and the “phytotoxicity rating ABUTH” value ([9]; 250 g ai/ha) was 100. The “phytotoxicity rating CORN” value ([10]; 63 g ai/ha) was 10, the “phytotoxicity rating CORN” value ([10]; 250 g ai/ha) was 95 and the “phytotoxicity rating RICE” value ([11]; 63 g ai/ha) was 40. The “phytotoxicity rating RICE” value ([11]; 250 g ai/ha) was 95, the “Post-emerge Herbicidal Activity, phytotoxicity rating ECHCG” value ([12]; Rate 63 g ai/ha) was 100 and the “Post-emerge Herbicidal Activity, phytotoxicity rating ECHCG” value ([12]; Rate 250 g ai/ha) was 100. For the same molecule, the “Post-emerge Herbicidal Activity, phytotoxicity rating AMBEL” value ([13]; Rate 63 g ai/ha) was 100, the “Post-emerge Herbicidal Activity, phytotoxicity rating AMBEL” value ([13]; Rate 250 g ai/ha) was 100 and the “Post-emerge Herbicidal Activity, phytotoxicity rating SETVI” value ([14]; Rate 63 g ai/ha) was 50. The “Post-emerge Herbicidal Activity, phytotoxicity rating SETVI” value ([14]; Rate 250 g ai/ha) was 100, the “Post-emerge Herbicidal Activity, phytotoxicity rating IPOHE” value ([15]; Rate 63 g ai/ha) was 100 and the “Post-emerge Herbicidal Activity, phytotoxicity rating IPOHE” value ([15]; Rate 250 g ai/ha) was 100. The “Post-emerge Herbicidal Activity, phytotoxicity rating SORHA” value ([16]; Rate 63 g ai/ha) was 70, the “Post-emerge Herbicidal Activity, phytotoxicity rating SORHA” value ([16]; Rate 250 g ai/ha) was 95 and the “Post-emerge Herbicidal Activity, phytotoxicity rating CHEAL” value ([17]; Rate 63 g ai/ha) was 100. The “Post-emerge Herbicidal Activity, phytotoxicity rating CHEAL” value ([17]; Rate 250 g ai/ha) was 100, the “Post-emerge Herbicidal Activity, phytotoxicity rating DIGSA” value ([18]; Rate 63 g ai/ha) was 70 and the “Post-emerge Herbicidal Activity, phytotoxicity rating DIGSA” value ([18]; Rate 250 g ai/ha) was 95. For the same molecule, the “Post-emerge Herbicidal Activity, phytotoxicity rating AMARE” value ([19]; Rate 63 g ai/ha) was 100, the “Post-emerge Herbicidal Activity, phytotoxicity rating AMARE” value ([19]; Rate 250 g ai/ha) was 100 and the “Post-emerge Herbicidal Activity, phytotoxicity rating CASOB” value ([20]; Rate 63 g ai/ha) was 70. The “Post-emerge Herbicidal Activity, phytotoxicity rating CASOB” value ([20]; Rate 250 g ai/ha) was 95, the “Post-emerge Herbicidal Activity, phytotoxicity rating ABUTH” value ([21]; Rate 63 g ai/ha) was 100 and the “Post-emerge Herbicidal Activity, phytotoxicity rating ABUTH” value ([21]; Rate 250 g ai/ha) was 100. For the same molecule, the “Post-emerge phytotoxicity rating CORN (crop damage)” value ([22]; Rate 63 g ai/ha) was 80, the “Post-emerge phytotoxicity rating CORN (crop damage)” value ([22]; Rate 250 g ai/ha) was 100 and the “Post-emerge phytotoxicity rating RICE (crop damage)” value ([23]; Rate 63 g ai/ha) was 50. The “Post-emerge phytotoxicity rating RICE (crop damage)” value ([23]; Rate 250 g ai/ha) was 95.

In the case of `CCOC(=O)C(Cl)(C#N)Cc1c(OC)c(Cl)cc(F)c1-n1c(=O)cc(C(F)(F)F)n(C)c1=O` (centres unmarked) [14-51], the “phytotoxicity rating AMARE” value ([1]; 63 g ai/ha) is reported as 100, the “phytotoxicity rating AMARE” value ([1]; 250 g ai/ha) is reported as 100 and the “phytotoxicity rating ECHCG” value ([2]; 63 g ai/ha) is reported as 0. The “phytotoxicity rating ECHCG” value ([2]; 250 g ai/ha) was 0, the “phytotoxicity rating SETVI” value ([3]; 63 g ai/ha) was 0 and the “phytotoxicity rating SETVI” value ([3]; 250 g ai/ha) was 0. The “phytotoxicity rating IPOHE” value ([4]; 63 g ai/ha) was 0, the “phytotoxicity rating IPOHE” value ([4]; 250 g ai/ha) was 50 and the “phytotoxicity rating SORHA” value ([5]; 63 g ai/ha) was 0. The “phytotoxicity rating SORHA” value ([5]; 250 g ai/ha) was 0, the “phytotoxicity rating CHEAL” value ([6]; 63 g ai/ha) was 90 and the “phytotoxicity rating CHEAL” value ([6]; 250 g ai/ha) was 100. For the same molecule, the “phytotoxicity rating DIGSA” value ([7]; 63 g ai/ha) was 0, the “phytotoxicity rating DIGSA” value ([7]; 250 g ai/ha) was 0 and the “phytotoxicity rating CASOB” value ([8]; 63 g ai/ha) was 0. The “phytotoxicity rating CASOB” value ([8]; 250 g ai/ha) was 0, the “phytotoxicity rating ABUTH” value ([9]; 63 g ai/ha) was 10 and the “phytotoxicity rating ABUTH” value ([9]; 250 g ai/ha) was 100. For the same molecule, the “phytotoxicity rating CORN” value ([10]; 63 g ai/ha) was 0, the “phytotoxicity rating CORN” value ([10]; 250 g ai/ha) was 0 and the “phytotoxicity rating RICE” value ([11]; 63 g ai/ha) was 0. The “phytotoxicity rating RICE” value ([11]; 250 g ai/ha) was 0, the “Post-emerge Herbicidal Activity, phytotoxicity rating ECHCG” value ([12]; Rate 63 g ai/ha) was 10 and the “Post-emerge Herbicidal Activity, phytotoxicity rating ECHCG” value ([12]; Rate 250 g ai/ha) was 20. The “Post-emerge Herbicidal Activity, phytotoxicity rating AMBEL” value ([13]; Rate 63 g ai/ha) was 0, the “Post-emerge Herbicidal Activity, phytotoxicity rating AMBEL” value ([13]; Rate 250 g ai/ha) was 20 and the “Post-emerge Herbicidal Activity, phytotoxicity rating SETVI” value ([14]; Rate 63 g ai/ha) was 0. The “Post-emerge Herbicidal Activity, phytotoxicity rating SETVI” value ([14]; Rate 250 g ai/ha) was 0, the “Post-emerge Herbicidal Activity, phytotoxicity rating IPOHE” value ([15]; Rate 63 g ai/ha) was 0 and the “Post-emerge Herbicidal Activity, phytotoxicity rating IPOHE” value ([15]; Rate 250 g ai/ha) was 30. For the same molecule, the “Post-emerge Herbicidal Activity, phytotoxicity rating SORHA” value ([16]; Rate 63 g ai/ha) was 0, the “Post-emerge Herbicidal Activity, phytotoxicity rating SORHA” value ([16]; Rate 250 g ai/ha) was 0 and the “Post-emerge Herbicidal Activity, phytotoxicity rating CHEAL” value ([17]; Rate 63 g ai/ha) was 0. The “Post-emerge Herbicidal Activity, phytotoxicity rating CHEAL” value ([17]; Rate 250 g ai/ha) was 10, the “Post-emerge Herbicidal Activity, phytotoxicity rating DIGSA” value ([18]; Rate 63 g ai/ha) was 0 and the “Post-emerge Herbicidal Activity, phytotoxicity rating DIGSA” value ([18]; Rate 250 g ai/ha) was 0. The “Post-emerge Herbicidal Activity, phytotoxicity rating AMARE” value ([19]; Rate 63 g ai/ha) was 0, the “Post-emerge Herbicidal Activity, phytotoxicity rating AMARE” value ([19]; Rate 250 g ai/ha) was 0 and the “Post-emerge Herbicidal Activity, phytotoxicity rating CASOB” value ([20]; Rate 63 g ai/ha) was 0. The “Post-emerge Herbicidal Activity, phytotoxicity rating CASOB” value ([20]; Rate 250 g ai/ha) was 0, the “Post-emerge Herbicidal Activity, phytotoxicity rating ABUTH” value ([21]; Rate 63 g ai/ha) was 0 and the “Post-emerge Herbicidal Activity, phytotoxicity rating ABUTH” value ([21]; Rate 250 g ai/ha) was 50. For the same molecule, the “Post-emerge phytotoxicity rating CORN (crop damage)” value ([22]; Rate 63 g ai/ha) was 0, the “Post-emerge phytotoxicity rating CORN (crop damage)” value ([22]; Rate 250 g ai/ha) was 0 and the “Post-emerge phytotoxicity rating RICE (crop damage)” value ([23]; Rate 63 g ai/ha) was 0. For the same molecule, the “Post-emerge phytotoxicity rating RICE (crop damage)” value ([23]; Rate 250 g ai/ha) was 0.
